Like-named read-outs stand apart in the source and are kept apart here.
Columns and labels:
[1] = molecular target: T1, full-length human α1D-adrenoceptor (Homo sapiens, UniProt P25100); assay: [3H]prazosin whole-cell competition binding, CHO-α1D cells; details: for Log KD α1D site 1: high-affinity component of two-component curve; for Log KD α1D site 2: low-affinity component of two-component curve
T1 sequence (P25100 1-572): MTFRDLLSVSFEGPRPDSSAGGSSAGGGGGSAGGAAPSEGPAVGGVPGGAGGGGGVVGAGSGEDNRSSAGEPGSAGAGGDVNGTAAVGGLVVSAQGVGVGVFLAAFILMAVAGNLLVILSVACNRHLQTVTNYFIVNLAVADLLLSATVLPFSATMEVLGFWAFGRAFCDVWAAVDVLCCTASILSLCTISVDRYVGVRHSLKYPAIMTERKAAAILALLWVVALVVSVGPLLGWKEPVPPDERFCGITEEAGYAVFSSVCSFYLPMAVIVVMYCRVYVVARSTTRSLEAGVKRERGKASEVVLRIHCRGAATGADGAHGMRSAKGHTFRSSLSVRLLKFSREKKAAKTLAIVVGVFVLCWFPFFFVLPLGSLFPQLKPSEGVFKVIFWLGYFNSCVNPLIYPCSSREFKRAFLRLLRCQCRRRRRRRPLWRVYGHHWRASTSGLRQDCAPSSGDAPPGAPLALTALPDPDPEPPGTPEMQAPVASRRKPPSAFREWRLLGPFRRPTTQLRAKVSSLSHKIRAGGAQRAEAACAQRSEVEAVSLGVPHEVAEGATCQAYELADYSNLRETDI

[2] = molecular target: T2, human α1A-adrenoceptor (Homo sapiens, UniProt P35348); assay: [3H]prazosin whole-cell competition binding, CHO-α1A cells; details: for selectivity α1A vs 1D / selectivity α1A vs α1B: ratio, 1 = no selectivity for a subtype over another
T2 construct: CHO cells stably expressing either the full‐length human α1A, α1B, or α1D‐adrenoceptor
T2 sequence (P35348 1-466): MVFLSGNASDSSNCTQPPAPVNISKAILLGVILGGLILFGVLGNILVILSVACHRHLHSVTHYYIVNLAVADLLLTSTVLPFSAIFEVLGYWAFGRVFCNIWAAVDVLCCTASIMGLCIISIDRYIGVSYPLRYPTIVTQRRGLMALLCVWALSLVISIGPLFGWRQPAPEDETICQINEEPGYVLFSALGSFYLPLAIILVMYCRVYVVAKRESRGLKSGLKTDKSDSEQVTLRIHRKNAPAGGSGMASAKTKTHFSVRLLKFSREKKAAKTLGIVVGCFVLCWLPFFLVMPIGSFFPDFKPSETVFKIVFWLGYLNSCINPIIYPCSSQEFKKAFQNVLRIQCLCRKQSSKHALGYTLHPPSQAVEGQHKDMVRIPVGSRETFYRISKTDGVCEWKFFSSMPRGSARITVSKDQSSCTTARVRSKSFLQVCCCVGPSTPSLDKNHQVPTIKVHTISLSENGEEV

[3] = molecular target: T3, human α1B-adrenoceptor (Homo sapiens, UniProt P35368); assay: [3H]prazosin whole-cell competition binding, CHO-α1B cells
T3 construct: CHO cells stably expressing either the full‐length human α1A, α1B, or α1D‐adrenoceptor
T3 sequence (P35368 1-520): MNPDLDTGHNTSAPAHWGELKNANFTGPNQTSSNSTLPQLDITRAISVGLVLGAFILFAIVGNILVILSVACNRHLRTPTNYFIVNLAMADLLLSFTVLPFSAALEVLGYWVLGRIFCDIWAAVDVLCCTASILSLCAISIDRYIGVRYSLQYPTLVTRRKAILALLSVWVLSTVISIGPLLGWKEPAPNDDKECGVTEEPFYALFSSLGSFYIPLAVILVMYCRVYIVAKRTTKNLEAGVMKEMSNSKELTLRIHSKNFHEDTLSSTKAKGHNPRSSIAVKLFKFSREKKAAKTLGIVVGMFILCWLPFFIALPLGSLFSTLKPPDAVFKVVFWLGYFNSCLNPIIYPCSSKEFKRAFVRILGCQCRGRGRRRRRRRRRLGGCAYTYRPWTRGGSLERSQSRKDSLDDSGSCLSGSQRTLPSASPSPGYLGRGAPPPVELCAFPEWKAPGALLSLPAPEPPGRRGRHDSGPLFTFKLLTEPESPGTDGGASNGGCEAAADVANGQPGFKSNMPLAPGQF

[4] = percentage of inhibition through first component, control
[5] = two-component inhibition curve, proportion of site 1
[6] = single-component inhibition curve, given as log KD (negative), mean ± SE mean
[7] = Log KD α1D, single-component inhibition curve, given as log KD (negative), mean ± SE mean
[8] = ratio of KD values, higher α1D affinity (site 1 KD)
[9] = ratio of KD values, higher α1A affinity, 1.0 under vs = none
[10] = ratio of KD values, printed under α1A = higher α1A affinity, 1.0 under vs = none
[11] = single-component inhibition curve, given as log KD (negative), mean ± SE mean, read-out: Log KD α1A (converted)
[12] = ratio, 1 = no selectivity for a subtype over another
[13] = ratio of KD values, higher α1B affinity, 1.0 under vs = none
[14] = single-component inhibition curve, given as log KD (negative), mean ± SE mean, read-out: Log KD α1B (converted)
[15] = log KD from 3H-prazosin whole cell binding, CHO cells, mean ± s.e.mean
[16] = selectivity ratio, 1 = no selectivity for a given receptor subtype over another

Molecule	Kd [1, 7]	Selectivity ratio α1B vs α1D [1, 8]	Selectivity ratio α1A vs α1D [2, 9]	Selectivity ratio α1A vs α1B [2, 10]	Kd [2, 11]	selectivity α1B vs α1D [3, 12]	Kd [3, 14]	also measured
COc1cccc(OC)c1OCCNCC1CSc2ccccc2O1 (stereo not shown) [Benoxathian]	–	–	–	–	–	–	–	Log KD α1D site 1 ([1]; control, used for selectivity): −7.91 ± 0.10; Log KD α1D site 2 ([1]; control): −5.62 ± 0.19; % site 1 α1D [1, 4]: 62.5 ± 3.4% Site 1; % site 1 α1D [1, 5]: -7.91 ± 0.10 -5.62 ± 0.19 62.5 ± 3.4% site 1; Log KD α1A [2, 6]: −9.08 ± 0.05; Log KD α1B [3, 6]: −7.32 ± 0.03
O=C1c2ccccc2CCC1CNCCc1ccc(O)cc1 (stereo not shown) [HEAT]	–	–	2.9 fold	3.4 fold	–	–	–	Log KD α1D site 1 ([1]; control, used for selectivity): −8.11 ± 0.18; Log KD α1D site 2 ([1]; control): −5.15 ± 0.26; % site 1 α1D [1, 4]: 64.1 ± 4.1% site 1; % site 1 α1D [1, 5]: -8.11 ± 0.18 -5.15 ± 0.26 64.1 ± 4.1% site 1; Log KD α1A [2, 6]: −8.57 ± 0.06; Selectivity ratio α1B vs α1D [3, 13]: 1.2 fold; Log KD α1B [3, 6]: −8.04 ± 0.04
CC(C)NCC(O)COc1cccc2[nH]c3ccccc3c12 (stereo not shown) [Carazolol]	–	2.3 fold	34 fold	78 fold	269 nM	2.3	20900 nM	Kd ([1]; Log KD α1D (apparent), app: top concentration inhibited most but not all specific binding, curve extrapolated): 9120 nM
CC(C)(Cc1c[nH]c2ccc(Cl)cc12)NCCOc1ccccc1OCC1CC1.Cl [RS17053, N‐[2‐(2‐cyclopropylmethoxyphenoxy)ethyl]‐5‐chloro‐alpha, alpha‐dimethyl‐1H‐indole‐3‐ethanamine hydrochloride]	–	1.7 fold	31 fold	52 fold	4.68 nM	1.7	245 nM	Kd [1]: 145 nM
CC(C)OC(=O)c1cc2c(OCC(O)CNC(C)(C)C)cccc2[nH]1 (stereo not shown) [SDZ 21009]	–	–	–	–	–	>12	–	Log KD α1D [1, 15]: -5.09 ± 0.18; Log KD α1A [2, 15]: -5.24 ± 0.07; selectivity α1A vs 1D [2]: 1.4; selectivity α1A vs α1B [2]: >17; Log IC50 α1B ([3]; log IC50 bound): Log IC50>-4
CN(C)CCCN1c2ccccc2CCc2ccc(Cl)cc21 [Clomipramine]	708 nM	–	–	–	–	–	457 nM	Selectivity ratio α1A vs α1B [2]: 60 fold; Selectivity ratio α1A vs α1D [2]: 93 fold; Kd ([2]; Log KD α1A, single-component inhibition curve, given as log KD (negative), mean ± SE mean): 7.59 nM; Selectivity ratio α1B vs α1D [3]: 1.5 fold
CC(C)(C)NCC(O)COc1cccc2[nH]c(=O)[nH]c12 (stereo not shown) [CGP 12177]	–	–	–	–	–	>1.6	–	Kd ([1]; Log KD α1D, log KD from 3H-prazosin whole cell binding, CHO cells, mean ± s.e.mean): 63100 nM; Kd ([2]; log KD from 3H-prazosin whole cell binding, CHO cells, mean ± s.e.mean, read-out: Log KD α1A (converted)): 7240 nM; selectivity α1A vs 1D [2]: 8.7; selectivity α1A vs α1B [2]: >14; Log IC50 α1B ([3]; log IC50 bound): Log IC50>-4
OCCN1CCN(CCC=C2c3ccccc3Sc3ccc(C(F)(F)F)cc32)CC1 [Flupenthixol]	110 nM	–	25 fold	7.6 fold	4.47 nM	–	33.9 nM	Selectivity ratio α1B vs α1D [3, 13]: 3.2 fold
Labetolol	–	–	–	–	–	–	–	Selectivity ratio α1B vs α1D [1]: 1.6 fold; Selectivity ratio α1A vs α1B [2]: 26 fold; Selectivity ratio α1A vs α1D [2]: 16 fold; selectivity α1B vs α1D [3]: 1.6
O=C(NC1CCN(CCc2c[nH]c3ccccc23)CC1)c1ccccc1 [Indoramin]	513 nM	–	138 fold	41 fold	3.72 nM	–	151 nM	α1A selectivity ([2]; for α1A over the α1B or α1D-adrenoceptors): 40 fold; Selectivity ratio α1B vs α1D [3, 13]: 3.4 fold
CC(C)(Cc1c[nH]c2ccccc12)NCC(O)COc1ccccc1C#N (stereo not shown) [Bucindolol]	355 nM	1.0 fold	13 fold	13 fold	26.9 nM	1.0	347 nM	selectivity α1A vs 1D [2]: 13.2; selectivity α1A vs α1B [2]: 13; selectivities α1A vs α1B [2, 16]: 13; selectivities α1A vs α1D [2, 16]: 13; α1A affinity, fold lower than that for the human β1 adrenoceptor ([2]; β1 affinity from ref 53): 54 fold; α1A affinity, fold lower than that for the β2 adrenoceptor ([2]; β2 affinity from refs 52, 53): 263 fold
CN(C)CC/C=C1\c2ccccc2CSc2ccccc21 [Dosulepin]	2630 nM	2.0 fold	34 fold	68 fold	77.6 nM	2.0	5250 nM	–
CC(C(O)c1ccc(O)cc1)N1CCC(Cc2ccccc2)CC1 (stereo not shown) [Ifenprodil]	–	43 fold	2.9 fold	15 fold	21.9 nM	43	324 nM	Kd ([1]; Log KD α1D site 1, high-affinity component of two-component curve, control, used for selectivity): 7.59 nM; Log KD α1D site 2 ([1]; control): −6.05 ± 0.13; % site 1 α1D [1, 4]: 48.8 ± 4.5% site 1; % site 1 α1D [1, 5]: -8.12 ± 0.18 -6.05 ± 0.13 48.8 ± 4.5% site 1
CN(C)CCCN1c2ccccc2CCc2ccccc21 [Imipramine]	1290 nM	1.3 fold	–	–	33.9 nM	1.3	1740 nM	Selectivity ratio α1A vs α1B [2]: 51 fold; Selectivity ratio α1A vs α1D [2]: 38 fold

Further lines, with some results ahead:

Kd [1, 7]	Selectivity ratio α1B vs α1D [1, 8]	Selectivity ratio α1A vs α1D [2, 9]	Selectivity ratio α1A vs α1B [2, 10]	Kd [2, 11]	selectivity α1B vs α1D [3, 12]	Kd [3, 14]	Molecule	also measured
11000 nM	5.8 fold	1.9 fold	11 fold	5890 nM	5.8	–	Cc1ccc(OCC(O)C(C)NC(C)C)c2c1CCC2 (stereo not shown) [ICI118551]	Kd ([3]; app: top concentration inhibited most but not all specific binding, curve extrapolated, read-out: Log KD α1B (apparent) (converted)): 63100 nM
–	9.1 fold	93 fold	851 fold	–	9.1	–	Cc1c[nH]c(=O)n(CCCN2CCN(c3ccccc3OCC(F)(F)F)CC2)c1=O [RS100329]	Log KD α1D site 1 ([1]; control, used for selectivity): −7.63 ± 0.17; Log KD α1D site 2 ([1]; control): −5.13 ± 0.15; % site 1 α1D [1, 4]: 70.5 ± 3.0% site 1; % site 1 α1D [1, 5]: -7.63 ± 0.17 -5.13 ± 0.15 70.5 ± 3.0% site 1; Log KD α1A [2, 6]: −9.60 ± 0.05; Kd ([2]; subtype not given, ligands with α1A selectivity (Table 1: α1A), read-out: affinity): < 0.25 nM; Log KD α1B [3, 6]: −6.67 ± 0.07
–	2.4 fold	7.2 fold	17 fold	–	2.4	–	CC1c2ccccc2CN1CC1=NCCN1 (stereo not shown) [BRL44408]	Log KD α1D [1, 6]: −5.06 ± 0.05; Log KD α1A [2, 6]: −5.92 ± 0.09; Log KD α1B [3, 6]: −4.68 ± 0.07
–	>12 fold	1.4 fold	>17 fold	–	–	–	CC(C)OC(=O)c1cc2c(OCC(O)CNC(C)(C)C)cccc2[nH]1 (stereo not shown) [SDZ21009]	Log KD α1D [1, 6]: −5.09 ± 0.18; Log KD α1A [2, 6]: −5.24 ± 0.07; selectivities α1B vs α1D [3, 16]: >12; Log IC50 α1B ([3]; top concentration inhibited some but 50% or less of specific binding, printed as log IC50): Log IC50 > −4

From article PMC7327383, “The affinity and selectivity of α‐adrenoceptor antagonists, antidepressants, and antipsychotics for the human α1A, α1B, and α1D‐adrenoceptors” (Pharmacology Research & Perspectives, 2020)
